From patent publication US10653796B2, “Liposomes containing cell penetrating peptides and tetraetherlipids for the oral delivery of macromolecules” (Universität Heidelberg, priority 2015, dated 2020) come the findings set out here.

A short description of data set [1]: Radioactivity at determined time points after oral application of radiolabeled substances. To be noted: radiolabeled substance. The class given is in vivo.
Data set [2] can be described thus: Bioavailability (absolute) of oral liposomal Vancomycin versus i.v. The class given is in vivo. To be noted: male, Wistar, rat, whole blood; oral liposomal formulation containing 1 mol-% of the cyclic CPP-liposomes, rats; read-out: bioavailability (absolute) in comparison with the i.v. application. As to the method:
The animal study was performed according to local authorities using male Wistar rats with a body weight of about 200-250 g. For the determination of the bioavailability (absolute) the glycopeptide antibiotic Vancomycin was radiolabeled with ^131I and incorporated into the liposomal formulation containing 1 mol-% of the cyclic CPP-phospholipid-conjugate and compared with Vancomycin i.v. as described previously. At several time points, the blood levels of Vancomycin were measured by direct counting of the radiolabeled sample. Briefly, groups (n≥3) of male Wistar rats were formed. Prior to 12 h of the experiment, the rats were kept without food, but with free access to water. Oral application of the liposomes took place by gavage. The blood was removed, weighed and the radioactivity was measured using a Berthold LB 951 G counter in comparison with standards. The blood-associated activity was related to the total injected dose (ID) and expressed as a percentage of the total injected dose per gram of tissue (% ID/g).

A short description of data set [3]: Oral availability of radiolabeled Adalimumab. The class given is in vivo, male Wistar rats. To be noted: liposomes containing 1 mol-% cyclic CPP-conjugate vs radiolabeled free antibody, 6 h, rats. As to the method: The animal study was performed according to local authorities using male Wistar rats with a body weight of about 200-250 g. For the determination of the bioavailability (absolute), the antibody Adalimumab (Humira®) was radiolabeled with ^131I and incorporated into the liposomal formulation containing 1 mol-% of the cyclic CPP-phospholipid-conjugate and compared with the free antibody as described previously. After 6 h, the blood levels were measured by direct counting of the radiolabeled sample. Prior to 12 h of the experiment, the rats were kept without food, but with free access to water. Oral application of the liposomes and the radiolabeled free antibody took place by gavage. The blood was removed, weighed and the radioactivity was measured using a Berthold LB 951 G counter in comparison with standards. The blood-associated activity was related to the total injected dose (ID) and expressed as a percentage of the total injected dose per gram of tissue (% ID/g) (FIG. 16).

Bounds are passed on as bounds.

On to `CCCCCCCCCCCCCCCC(=O)N[C@@H](CCC(=O)NCCCC[C@H](NC(=O)[C@H](C)NC(=O)[C@H](C)NC(=O)[C@H](CCC(N)=O)NC(=O)CNC(=O)[C@H](CCC(=O)O)NC(=O)[C@H](CC(C)C)NC(=O)[C@H](Cc1ccc(O)cc1)NC(=O)[C@H](CO)NC(=O)[C@H](CO)NC(=O)[C@@H](NC(=O)[C@H](CC(=O)O)NC(=O)[C@H](CO)NC(=O)[C@@H](NC(=O)[C@H](Cc1ccccc1)NC(=O)[C@@H](NC(=O)CNC(=O)[C@H](CCC(=O)O)NC(=O)[C@H](C)NC(=O)[C@@H](N)Cc1cnc[nH]1)[C@@H](C)O)[C@@H](C)O)C(C)C)C(=O)N[C@@H](CCC(=O)O)C(=O)N[C@@H](Cc1ccccc1)C(=O)N[C@H](C(=O)N[C@@H](C)C(=O)N[C@@H](Cc1c[nH]c2ccccc12)C(=O)N[C@@H](CC(C)C)C(=O)N[C@H](C(=O)N[C@@H](CCCNC(=N)N)C(=O)NCC(=O)N[C@@H](CCCNC(=N)N)C(=O)NCC(=O)O)C(C)C)[C@@H](C)CC)C(=O)O` [Liraglutide], for which the “mucosal uptake by the liposomal formulations” value in data set [1] is on record as “strongly enhanced mucosal uptake”.
As a reminder, the bioavailability is the share of a dose that reaches the circulation, judged against a reference dose that is usually intravenous. `CN[C@H](CC(C)C)C(=O)N[C@H]1C(=O)N[C@@H](CC(N)=O)C(=O)N[C@H]2C(=O)N[C@H]3C(=O)N[C@H](C(=O)N[C@H](C(=O)O)c4cc(O)cc(O)c4-c4cc3ccc4O)[C@H](O)c3ccc(c(Cl)c3)Oc3cc2cc(c3O[C@@H]2O[C@H](CO)[C@@H](O)[C@H](O)[C@H]2O[C@H]2C[C@](C)(N)[C@H](O)[C@H](C)O2)Oc2ccc(cc2Cl)[C@H]1O` [Vancomycin]: in data set [2], the bioavailability was no more than 50%.
With Adalimumab, in data set [3], the oral availability entry is “strong increase”. In addition, in data set [1], the “mucosal uptake by the liposomal formulations” value was “strongly enhanced mucosal uptake”.
